Source: ChEMBL document CHEMBL1201862, “PubChem BioAssay data set” (2004)
The source made the active and inactive calls. For most assays here, no stated cut-off is given here; in the data, actives have a measured EC50 and inactives only a lower limit.

Legend:
[1] = biological target: FAD-linked sulfhydryl oxidase ALR (Homo sapiens, UniProt P55789); experiment: ALR-catalysed DTT oxidation blockers – biochemical, H2O2 detection, luminescence, cherry-pick, dose response (AID 493248)
[2] = luciferase reporter signal suppression in cells – H4 neuroglioma cells, luminescence, dose response (AID 1990); assay type: functional, cell-based
[3] = Luminescence Cell-Based Dose Response HTS to Identify Inhibitors of 5'UTR Stem-Loop Driven Prion Protein mRNA Translation in H4 Neuroglioblastoma Cells. [Related pubchem assays: 1827 (Project Summary), 1813 (Primary HTS)]; assay type: functional
[4] = alpha-synuclein stem-loop luciferase translation blockers – H4 neuroglioma cells, luminescence, confirmation (AID 1988); assay type: functional, cell-based
[5] = biological target: T1, Corticotropin-releasing factor receptor 2/Corticotropin-releasing factor-binding protein (Homo sapiens, UniProt P24387+Q13324); experiment: Dose Response confirmation of uHTS hits for small molecule antagonists of the CRF-binding protein and CRF-R2 receptor complex.; assay type: functional; conditions: read-out: IC50_Mean
T1 sequence (Q13324 whole entry): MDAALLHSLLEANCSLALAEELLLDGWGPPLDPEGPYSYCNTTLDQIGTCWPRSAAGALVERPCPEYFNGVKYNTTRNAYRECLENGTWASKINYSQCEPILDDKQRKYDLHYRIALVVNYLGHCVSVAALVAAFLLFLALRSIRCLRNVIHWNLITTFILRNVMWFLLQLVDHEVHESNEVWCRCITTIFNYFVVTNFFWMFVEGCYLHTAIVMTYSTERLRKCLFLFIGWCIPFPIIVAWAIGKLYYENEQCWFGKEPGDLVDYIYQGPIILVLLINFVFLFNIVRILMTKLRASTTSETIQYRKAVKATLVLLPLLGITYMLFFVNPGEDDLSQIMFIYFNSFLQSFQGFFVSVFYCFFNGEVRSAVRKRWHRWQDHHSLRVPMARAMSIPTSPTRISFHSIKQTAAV
T1 sequence (P24387 whole entry): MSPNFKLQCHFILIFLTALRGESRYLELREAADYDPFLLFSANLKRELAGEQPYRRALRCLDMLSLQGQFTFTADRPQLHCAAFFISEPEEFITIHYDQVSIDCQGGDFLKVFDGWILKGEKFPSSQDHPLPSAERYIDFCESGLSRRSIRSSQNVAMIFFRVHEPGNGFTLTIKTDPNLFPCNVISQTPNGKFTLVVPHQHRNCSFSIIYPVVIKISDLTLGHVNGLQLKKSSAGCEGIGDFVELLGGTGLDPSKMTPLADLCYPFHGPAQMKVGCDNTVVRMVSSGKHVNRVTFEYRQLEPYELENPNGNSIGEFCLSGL

[6] = biological target: T1, Corticotropin-releasing factor receptor 2/Corticotropin-releasing factor-binding protein; experiment: activators of CRF receptor 2 with binding protein – uHTS hits, confirmation (AID 602473); assay type: functional; conditions: read-out: EC50_Mean
[7] = biological target: T2, Heat shock factor protein 1 (Mus musculus, UniProt P38532); experiment: decrease of HSF1-responsive luciferase luminescence – cell-based, NIH3T3, dose retest, confirmation (AID 2382); assay type: functional;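 further: NIH3T3 fibroblasts with HSF1-driven luciferase reporter stressed by proteasome inhibitor MG132; luminescence from HSF1-driven luciferase expression after 8 hours of MG132 stress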
T2 sequence (P38532 whole entry): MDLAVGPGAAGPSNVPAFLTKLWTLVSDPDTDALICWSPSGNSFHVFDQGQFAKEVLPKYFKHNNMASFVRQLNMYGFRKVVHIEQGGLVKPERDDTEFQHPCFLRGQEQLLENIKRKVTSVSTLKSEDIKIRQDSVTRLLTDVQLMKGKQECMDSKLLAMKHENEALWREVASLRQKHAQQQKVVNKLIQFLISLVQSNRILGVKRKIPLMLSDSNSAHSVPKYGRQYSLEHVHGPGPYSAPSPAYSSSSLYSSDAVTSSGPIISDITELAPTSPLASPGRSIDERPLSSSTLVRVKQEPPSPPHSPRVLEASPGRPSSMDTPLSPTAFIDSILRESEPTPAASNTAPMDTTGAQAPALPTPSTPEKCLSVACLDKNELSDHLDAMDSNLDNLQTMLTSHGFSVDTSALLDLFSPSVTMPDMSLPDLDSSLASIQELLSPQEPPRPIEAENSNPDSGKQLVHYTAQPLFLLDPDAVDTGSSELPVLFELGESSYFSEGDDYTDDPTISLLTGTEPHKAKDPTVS

Cytochrome P450 2C9 = Cytochrome P450 2C9 (Homo sapiens, UniProt P11712)
Cytochrome P450 2C9, sequence (P11712 whole entry): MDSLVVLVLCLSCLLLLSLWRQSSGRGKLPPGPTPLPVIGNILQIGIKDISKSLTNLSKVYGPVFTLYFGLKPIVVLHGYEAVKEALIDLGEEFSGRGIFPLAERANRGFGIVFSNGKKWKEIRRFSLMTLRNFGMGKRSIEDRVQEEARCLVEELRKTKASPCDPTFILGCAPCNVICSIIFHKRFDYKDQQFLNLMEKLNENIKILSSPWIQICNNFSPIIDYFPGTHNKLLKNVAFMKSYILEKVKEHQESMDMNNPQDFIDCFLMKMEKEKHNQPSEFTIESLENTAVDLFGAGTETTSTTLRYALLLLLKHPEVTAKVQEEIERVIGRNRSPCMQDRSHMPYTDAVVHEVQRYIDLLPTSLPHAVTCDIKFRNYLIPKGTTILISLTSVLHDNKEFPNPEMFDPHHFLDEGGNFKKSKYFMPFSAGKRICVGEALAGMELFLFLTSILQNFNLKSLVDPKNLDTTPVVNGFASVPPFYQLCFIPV

H4 = experiment: Luminescence Cell-Based Dose Response HTS to Identify Activators of 5'UTR Stem-Loop Driven Prion Protein mRNA Translation in H4 Neuroglioblastoma Cells. [Related pubchem assays: 1829 (Project Summary), 1814 (Primary HTS)]; assay type: functional; conditions: Homo sapiens
[8] = biological target: T3, Rac GTPase-activating protein 1 (Homo sapiens, UniProt Q9H0H5); experiment: blockers of MgcRacGAP-driven Rac1 GTP hydrolysis – biochemical, ADP Hunter fluorescence, primary and confirmatory, confirmation (AID 624330); assay type: functional
T3 sequence (Q9H0H5 whole entry): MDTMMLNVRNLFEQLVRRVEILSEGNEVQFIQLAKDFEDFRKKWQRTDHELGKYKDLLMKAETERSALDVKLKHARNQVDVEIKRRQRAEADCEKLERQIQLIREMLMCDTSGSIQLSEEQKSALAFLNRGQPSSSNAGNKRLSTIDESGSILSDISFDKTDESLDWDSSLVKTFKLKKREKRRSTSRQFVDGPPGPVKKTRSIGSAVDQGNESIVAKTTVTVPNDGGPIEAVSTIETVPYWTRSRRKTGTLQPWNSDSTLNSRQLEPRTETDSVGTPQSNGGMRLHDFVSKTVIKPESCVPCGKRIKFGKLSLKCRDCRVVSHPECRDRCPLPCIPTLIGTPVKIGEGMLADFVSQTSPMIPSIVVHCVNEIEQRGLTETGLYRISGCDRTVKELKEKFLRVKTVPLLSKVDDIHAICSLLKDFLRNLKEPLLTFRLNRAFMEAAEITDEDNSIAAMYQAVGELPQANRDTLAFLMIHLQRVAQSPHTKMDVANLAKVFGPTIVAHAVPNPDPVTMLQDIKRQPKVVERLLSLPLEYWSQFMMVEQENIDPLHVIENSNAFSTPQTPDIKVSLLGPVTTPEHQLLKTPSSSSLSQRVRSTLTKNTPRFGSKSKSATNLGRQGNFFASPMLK

[9] = viability of uninfected HEp-2 cells – cell-based, HTS, cytotoxicity control for RSV inhibitor project, dose response (AID 2410); assay type: functional; conditions: human respiratory syncytial virus
[10] = Trypanosoma cruzi growth suppression in host cells – NIH3T3 host cells, beta-gal luminescence, confirmation (AID 2044); assay type: functional, cell-based;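 further: intracellular parasites grown in NIH/3T3 mouse fibroblasts as host cells; luminescent beta-galactosidase reporter signal from transgenic T. cruzi replicating inside host cells; inhibitors lower the luminescence signal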
[11] = NIH3T3 cell viability loss – ATP luminescence, mouse fibroblasts, counter-screen, dose response (AID 2010); assay type: functional, cell-based;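 further: cells exposed to compound for about 90 hours before reading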
[12] = Luminescence Cell-Based Dose Retest to Confirm Inhibitors of Cancer Stem Cells. [Related pubchem assays (depositor defined):AID2717, AID2721]; assay type: functional; conditions: Homo sapiens
[13] = Luminescence Cell-Based Dose Response HTS to Identify Activators of Luciferase Translation or Activity in H4 […] Cells. [Related pubchem assays: 1829 (Project Summary), 1814 (Primary HTS)]; assay type: functional

FAD-linked sulfhydryl oxidase ALR, sequence (P55789 whole entry): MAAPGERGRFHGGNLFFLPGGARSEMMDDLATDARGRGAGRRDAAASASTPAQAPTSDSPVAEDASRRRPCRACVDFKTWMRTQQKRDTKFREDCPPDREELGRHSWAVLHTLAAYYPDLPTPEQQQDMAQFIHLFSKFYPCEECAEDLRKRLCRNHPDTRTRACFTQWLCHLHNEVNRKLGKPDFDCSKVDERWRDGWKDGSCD

NNC(=O)c1ccc(O)cc1
AC50 [1]: 4.28 µM (active)

O=C1NC(=O)C(CCc2ccncc2)(Cc2cccc(Cl)c2Cl)C(=O)N1c1ccc(Br)cc1 (stereo unspecified)
EC50 [2]: 13.2 µM (active) | EC50 [3]: 18.9 µM (active) | EC50 [4]: 13.9 µM (active)

O=C(O)CCNC(=O)OCC1c2ccccc2-c2ccccc21
IC50 [5]: > 47.1 µM (inactive) | EC50 [6]: > 53 µM (inactive)

Cc1ccn2c(NC(C)(C)C)c(-c3cccs3)nc2c1
AC50 [1]: 1.58 µM (active)

COc1ccc(CCNC(=O)c2cccc([N+](=O)[O-])c2)cc1OC
EC50 [7]: 2.26 µM (active)

O=C(C1CCCN(S(=O)(=O)c2c[nH]cn2)C1)N1CCN(c2ccc(Cl)cc2)CC1 (stereo unspecified)
AC50 [1]: > 100 µM (inactive)

CC1Oc2ccccc2N(CC(=O)NCc2ccccc2)C1=O (stereo unspecified)
EC50 [7]: > 195 µM (not active)

COc1ccc(N(CC(=O)NCCc2ccc(OC)c(OC)c2)S(=O)(=O)c2c(C)noc2C)cc1
IC50 [5]: > 47.1 µM (inactive) | EC50 [6]: > 53 µM (inactive)

N#CCCn1cc(C(=O)Nc2ccc([N+](=O)[O-])cc2)c(-c2ccccc2)n1
EC50 [7]: > 195 µM (not active)

COc1ccc(CNC(=O)Nc2cccs2)cc1OC
IC50 [5]: > 47.1 µM (inactive) | EC50 [6]: > 53 µM (inactive) | AC50 (Cytochrome P450 2C9): 39.8 µM (inconclusive)

CCc1c(C)sc(NC(=O)CSc2nc3c(c(C(F)(F)F)n2)CCc2ccccc2-3)c1C#N
EC50 [2]: > 120 µM (not active) | EC50 [3]: > 120 µM (not active) | EC50 [4]: 18.8 µM (active)

CCOC(=O)c1c(CN(C)C)n(C)c2ccc(OC(C)=O)cc12
EC50 [7]: > 195 µM (not active)

COc1cc2ccccc2cc1C(=O)Nc1ccc(N2CCN(C)CC2)cc1
EC50 (H4): > 120 µM (not active)

[O-][n+]1onc2c3c4c(n(O)c3ccc21)CCCC4
AC50 [1]: 0.497 µM (active)

COc1ccc(/C=C2\C(=O)ON=C2c2ccccc2)cc1
AC50 [1]: 66.4 µM (active)

Cc1cccc(N(C(=O)c2sc(C)nc2C)C(C(=O)NCC2CCCO2)c2ccccc2)c1 (stereo unspecified)
IC50 [5]: > 47.1 µM (inactive) | EC50 [6]: > 53 µM (inactive)

Cc1oc2c(C)c3oc(=O)c(CCC(=O)N4C[C@H]5C[C@@H](C4)c4cccc(=O)n4C5)c(C)c3cc2c1C
EC50 [2]: 65.1 µM (active) | EC50 [3]: > 120 µM (not active) | EC50 [4]: 13.5 µM (active)

O=S(=O)(Nc1ccncc1)c1ccc(Cl)cc1
EC50 [7]: > 195 µM (not active)

Cc1ccn2c(NC3CCCCC3)c(C(C)C)nc2c1
AC50 [1]: 2.82 µM (active)

CC(=O)c1c(N2CCCCC2)nc(=S)n(Cc2ccccc2)c1C
IC50 [5]: > 47.1 µM (inactive) | EC50 [6]: > 53 µM (inactive)

CCN(Cc1ccncc1)Cc1ccc(OC)c(OC)c1
IC50 [8]: 190 µM (active)

CCCCCN(C(=O)CCC(=O)OCC(=O)c1c(C)cc(C)cc1C)c1c(N)n(CCCC)c(=O)[nH]c1=O
IC50 [5]: > 47.1 µM (inactive) | EC50 [6]: > 53 µM (inactive)

O=C(NNC(=O)c1oc2ccccc2c1-n1cccc1)c1ccco1
IC50 [5]: > 47.1 µM (inactive) | EC50 [6]: > 53 µM (inactive)

Cc1ccc(OCCC(=O)O)cc1
IC50 [5]: > 47.1 µM (inactive) | EC50 [6]: > 53 µM (inactive)

CN(C)c1cccc(C(=O)NC2CCCCCC2)c1
AC50 [1]: 8.08 µM (active)

Cc1ccc(-n2nc3c(=O)n(CCCC(=O)NCc4cccc(Cl)c4)nc(C)c3c2C)cc1
CC50 [9]: 28.4 µM (active) | EC50 [2]: 14.1 µM (active) | EC50 [3]: 74.3 µM (active) | EC50 [4]: 61.6 µM (active)

Cc1cccc(Oc2ccc3c(c2)cc(C(=O)O)n3C)c1
AC50 [1]: 0.211 µM (active)

Cc1sc2ncnc(N3CCC(C(=O)N(C)CC(=O)Nc4ccc(Cl)c(C(F)(F)F)c4)CC3)c2c1C
EC50 [2]: 7.86 µM (active) | EC50 [3]: 13 µM (active) | EC50 [4]: 10.3 µM (active) | EC50 [10]: 2.73 µM (active) | EC50 [11]: > 60 µM (not active) | AC50 [12]: 3.41 µM (active)

CC(C)(C)NC(=O)COC(=O)c1ccccc1Nc1ccc(SC(F)F)cc1
EC50 [13]: 23.9 µM (active) | EC50 (H4): 12.8 µM (active)

CCCOc1ccc(N2C(=O)CC(N3CCC(c4nc5ccccc5o4)CC3)C2=O)cc1 (stereo unspecified)
EC50 [2]: > 120 µM (not active) | EC50 [3]: > 60 µM (not active) | EC50 [4]: > 120 µM (not active)

COCCCNc1nc(S)nc2cc(OC)c(OC)cc12
IC50 [8]: 69.7 µM (active)

O=C(Cc1coc2cc(O)ccc12)N1CCN(S(=O)(=O)c2ccc(Br)cc2)CC1
IC50 [8]: 21.6 µM (active)

COc1ccc(CNC(=O)CN(C)S(=O)(=O)c2ccc3c(c2)n(C)c(=O)c(=O)n3C)cc1
IC50 [5]: > 47.1 µM (inactive) | EC50 [6]: > 53 µM (inactive)

O=C(CN1CCN(c2ccc(O)cc2)CC1)Nc1ccc(S(=O)(=O)N2CCCC2)cc1
AC50 [1]: 0.699 µM (active)

CN(C)c1ccc(CNC(=O)C2CCN(S(=O)(=O)c3ccc4c(c3)CCCC(=O)N4)CC2)cc1
AC50 [1]: 5.99 µM (active)

COc1ccc(C2SCC(=O)N2c2ccc(F)cc2)cc1 (stereo unspecified)
AC50 [1]: 0.049 µM (active)

CC(C(=O)NC(=O)NC1CCCCC1)N1CCN(c2ccc(O)cc2)CC1 (stereo unspecified)
IC50 [8]: 55.5 µM (active)

O=C(COC(=O)c1cc2ccccc2cc1O)NC1CCCCC1
IC50 [5]: > 47.1 µM (inactive) | EC50 [6]: > 53 µM (inactive)

O=C(c1ccc(F)cc1)C1CCN(Cc2ccccc2F)CC1
IC50 [5]: > 47.1 µM (inactive) | EC50 [6]: > 53 µM (inactive)

CCc1ccc(/C=N/NC(=O)c2cc(C3CC3)nc3ccc(Br)cc23)s1
EC50 [2]: > 120 µM (not active) | EC50 [3]: 9.75 µM (active) | EC50 [4]: 6.9 µM (active)

COc1ccc(/C=N/NC(=O)c2cc[n+]([O-])cc2)cc1O
IC50 [8]: 38.2 µM (active)

C=CCn1c(CNc2ccc(C)cc2)nnc1SCC(=O)N/N=C/c1ccc(O)cc1O
AC50 [12]: 4.31 µM (active) | IC50 [8]: 85.1 µM (active)

CCN(CC)c1ccc(/C=N\NC(N)=O)cc1
AC50 [1]: 0.825 µM (active) | IC50 [8]: 50.7 µM (active)
